Assay results as given in patent US4200631A, “Treating mammalian subject sensitive to indomethacin ulcerogenisis” (priority 1978, dated 1980).

Settings: rat, in vivo, po

COc1ccc2c(c1)c(CC(=O)O)c(C)n2C(=O)c1ccc(Cl)cc1 [Indomethacin]
Therapeutical index LD50/ED50 (B): 8.9
